In patent publication US7943628B2, “Pyrimidine derivatives” (Pfizer Limited, priority 2005, dated 2011):

biological target: T1, histamine H4 receptor (Homo sapiens, UniProt Q9H3N8); test: H4 binding, method 1 ([3H]-histamine filtration binding on CHO cell membranes); details: 1.5 h
T1 construct: expressed in transfected cells; host or cells: CHO cells
Procedure, shortened: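 Membranes from CHO cells expressing human H4 receptor (20-35 μg/well) incubated 90 min at room temperature with 3 nM [3H]-histamine in 50 mM Tris-HCl pH 7.4, ± competitor. Bound label separated by filtration on PEI-soaked GF/B filters and counted by scintillation; non-specific binding with 10 μM JNJ7777120.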

T1 sequence (Q9H3N8 whole entry): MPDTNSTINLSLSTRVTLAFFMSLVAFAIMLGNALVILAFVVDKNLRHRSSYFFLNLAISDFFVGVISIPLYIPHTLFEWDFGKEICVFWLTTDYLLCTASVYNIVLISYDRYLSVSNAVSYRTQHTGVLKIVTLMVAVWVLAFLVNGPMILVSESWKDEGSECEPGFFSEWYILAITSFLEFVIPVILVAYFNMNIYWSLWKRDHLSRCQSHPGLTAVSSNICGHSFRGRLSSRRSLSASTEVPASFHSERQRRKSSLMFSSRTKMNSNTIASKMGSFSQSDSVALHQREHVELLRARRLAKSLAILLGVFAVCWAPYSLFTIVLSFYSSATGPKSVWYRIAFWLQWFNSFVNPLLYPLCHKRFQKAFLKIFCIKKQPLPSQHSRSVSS

Row | Structure (SMILES) | inhibition at 10 µM | inhibition at 20 µM
1 | CCNc1cc(N2CC(C)(NC)C2)nc(N)n1 [Example 257, N^4-Ethyl-6-[3-methyl-3-(methylamino)azetidin-1-yl]pyrimidine-2,4-diamine] | 100% | 
2 | CN[C@@H]1CCN(c2cc(NCc3ccc(F)cc3F)nc(N)n2)C1 [Example 325, N^4-(2,4-Difluorobenzyl)-6-[(3R)-3-(methylamino)pyrrolidin-1-yl]pyrimidine-2,4-diamine] |  | 43%

same assay, conditions: H4 binding, method 1; Ki calculated from IC50 (Cheng-Prussoff)

Row | Structure (SMILES) | Ki
3 | CCNc1cc(N2CC(N3CCCC3)C2)nc(N)n1 [Example 197, N^4-Ethyl-6-(3-pyrrolidin-1-ylazetidin-1-yl)pyrimidine-2,4-diamine] | 33.2 nM
4 | CCNc1cc(N2CCCNCC2)nc(N)n1 [Example 175, 6-(1,4-Diazepan-1-yl)-N^4-ethylpyrimidine-2,4-diamine] | 12.3 nM
5 | CNC1CN(c2cc(N[C@@H](C)C(C)C)nc(N)n2)C1 [Example 129, N^4-[(1S)-1,2-Dimethylpropyl]-6-[3-(methylamino)azetidin-1-yl]pyrimidine-2,4-diamine] | 3.78 nM
6 | CCNc1cc(N2CC(NC)C2)nc(N)n1 [Example 164, N^4-Ethyl-6-[3-(methylamino)azetidin-1-yl]pyrimidine-2,4-diamine] | 3.82 nM
7 | CC(C)(C)CCNc1cc(N2CCC(N)C2)ncn1 (stereo not drawn) [Example 292, 6-(3-Aminopyrrolidin-1-yl)-N-(3,3-dimethylbutyl)pyrimidin-4-amine] | 2590 nM
8 | CN[C@@H]1CCN(c2cc(NCc3cccc(F)c3)nc(N)n2)C1 [Example 249, N^4-(3-Fluorobenzyl)-6-[(3R)-3-(methylamino)pyrrolidin-1-yl]pyrimidine-2,4-diamine] | 343 nM
9 | CN1CCN(c2cc(NCC3CC3)ncn2)CC1 [Example 106, N-(Cyclopropylmethyl)-6-(4-methylpiperazin-1-yl)pyrimidin-4-amine] | 66.1 nM
10 | CN1C[C@@H]2C[C@H]1CN2c1cc(NCCC(C)(C)C)ncn1 [Example 5, N-(3,3-Dimethylbutyl)-6-[(1S,4S)-5-methyl-2,5-diazabicyclo[2.2.1]hept-2-yl]pyrimidin-4-amine] | 263 nM
11 | CN[C@@H]1CCN(c2cc(NCc3ccc(F)c(F)c3)nc(N)n2)C1 [Example 277, N^4-(3,4-Difluorobenzyl)-6-[(3R)-3-(methylamino)pyrrolidin-1-yl]pyrimidine-2,4-diamine] | 1230 nM
12 | c1ccc(CCNc2cc(N[C@H]3CCNC3)ncn2)cc1 [Example 315, N-(2-Phenylethyl)-N′-[(3S)-pyrrolidin-3-yl]pyrimidine-4,6-diamine] | 5190 nM
13 | CN[C@@H]1CCN(c2cc(NCc3cc(F)cc(F)c3)nc(N)n2)C1 [Example 273, N^4-(3,5-Difluorobenzyl)-6-[(3R)-3-(methylamino)pyrrolidin-1-yl]pyrimidine-2,4-diamine] | 950 nM
14 | Nc1nc(NCC2CC2)cc(N2CC[C@@H]3NCC[C@@H]3C2)n1 (racemic) [Example 188, N^4-(Cyclopropylmethyl)-6-[(3aR*,7aS*)-octahydro-5H-pyrrolo[3,2-c]pyridin-5-yl]pyrimidine-2,4-diamine] | 25.5 nM
15 | CNC1CN(c2cc(NCc3ccc(F)c(F)c3)nc(N)n2)C1 [Example 233, N^4-(3,4-Difluorobenzyl)-6-[3-(methylamino)azetidin-1-yl]pyrimidine-2,4-diamine] | 30.4 nM
16 | CC(C)Nc1cc(N2C[C@H]3CNC[C@H]3C2)nc(N)n1 [Example 238, 6-[(3aR*,6aS*)-Hexahydropyrrolo[3,4-c]pyrrol-2(1H )-yl]-N^4-isopropylpyrimidine-2,4-diamine] | 222 nM
17 | Nc1nc(NC2CCC2)cc(N2C[C@@H]3CCCN[C@@H]3C2)n1 [Example 178, N^4-Cyclobutyl-6-[(4aS,7aS)-octahydro-6H-pyrrolo[3,4-b]pyridin-6-yl]pyrimidine-2,4-diamine] | 16.1 nM
18 | CNC1CN(c2cc(N3CCC(C)CC3)nc(N)n2)C1 [Example 173, 4-[3-(Methylamino)azetidin-1-yl]-6-(4-methylpiperidin-1-yl)pyrimidin-2-amine] | 10.1 nM
19 | CN[C@@H]1CCN(c2cc(NCC3CCCC3)nc(N)n2)C1 [Example 174, N^4-(Cyclopentylmethyl)-6-[(3R)-3-(methylamino)pyrrolidin-1-yl]pyrimidine-2,4-diamine] | 10.6 nM
20 | CN[C@@H]1CCN(c2cc(N3CCOCC3)nc(N)n2)C1 [Example 282, 4-[(3R)-3-(Methylamino)pyrrolidin-1-yl]-6-morpholin-4-ylpyrimidin-2-amine] | 1660 nM
21 | CC(C)CNc1cc(N2CC[C@@H](N)C2)nc(N)n1 [Example 216, 6-[(3R)-3-Aminopyrrolidin-1-yl]-N^4-isobutylpyrimidine-2,4-diamine] | 70.6 nM
22 | CN1C[C@@H]2CN(c3cc(NCCC(C)(C)C)ncn3)C[C@@H]2C1 [Example 3, N-(3,3-Dimethylbutyl)-6-[(3aR*,6aS*)-5-methylhexahydropyrrolo[3,4-c]pyrrol-2(1H)-yl]pyrimidin-4-amine] | 220 nM

Row | Structure (SMILES) | Ki
23 | c1nc(NCC2CC2)cc(N2CCNCC2)n1 [Example 285, N-(Cyclopropylmethyl)-6-piperazin-1-ylpyrimidin-4-amine] | 1800 nM
24 | CCCNc1cc(N2CC[C@@H](N)C2)nc(N)n1 [Example 219, 6-[(3R)-3-Aminopyrrolidin-1-yl]-N^4-propylpyrimidine-2,4-diamine] | 82.3 nM
25 | CN(C)CCNc1cc(NCC2CC2)nc(N)n1 [Example 176, N^4-(Cyclopropylmethyl)-N6-[2-(dimethylamino)ethyl]pyrimidine-2,4,6-triamine] | 15.1 nM
26 | C[C@H]1CN(c2cc(NCc3ccc(F)cc3)nc(N)n2)CCN1 [Example 240, N^4-(4-Fluorobenzyl)-6-[(3S)-3-methylpiperazin-1-yl]pyrimidine-2,4-diamine] | 238 nM
27 | CNC1CN(c2cc(NCc3cccc(F)c3F)nc(N)n2)C1 [Example 131, N^4-(2,3-Difluorobenzyl)-6-[3-(methylamino)azetidin-1-yl]pyrimidine-2,4-diamine] | 17.8 nM
28 | CN[C@@H]1CCN(c2cc(NC(C)C)nc(N)n2)C1 [Example 286, N^4-lsopropyl-6-[(3R)-3-(methylamino)pyrrolidin-1-yl]pyrimidine-2,4-diamine] | 1940 nM
29 | CNC1CCCN(c2cc(NCC(C)C)nc(N)n2)C1 (stereo not drawn) [Example 278, N^4-Isobutyl-6-[3-(methylamino)piperidin-1-yl]pyrimidine-2,4-diamine] | 1260 nM
30 | CNC1CN(c2cc(NC(C)(C)C)nc(N)n2)C1 [Example 168, N^4-(tert-Butyl)-6-[3-(methylamino)azetidin-1-yl]pyrimidine-2,4-diamine] | 6.5 nM
31 | CC(C)CNc1cc(N2CCCN(C)CC2)nc(N)n1 [Example 135, N^4-Isobutyl-6-(4-methyl-1,4-diazepan-1-yl)pyrimidine-2,4-diamine] | 1.13 nM
32 | CN[C@@H]1CCN(c2cc(NC3CC3)nc(N)n2)C1 [Example 256, N^4-Cyclopropyl-6-[(3R)-3-(methylamino)pyrrolidin-1-yl]pyrimidine-2,4-diamine] | 501 nM
33 | C[C@@H]1CN(c2cc(NCc3ccccc3)nc(N)n2)CCN1 [Example 259, N^4-Benzyl-6-[(3R)-3-methylpiperazin-1-yl]pyrimidine-2,4-diamine] | 577 nM
34 | CC(C)Nc1cc(N2CC[C@@H]3NCC[C@@H]3C2)nc(N)n1 (racemic) [Example 137, N^4-Isopropyl-6-[(3aR*,7aS*)-octahydro-5H-pyrrolo[3,2-c]pyridin-5-yl]pyrimidine-2,4-diamine] | 8.25 nM
35 | CNC1(C)CN(c2cc(NCC3CC3)nc(N)n2)C1 [Example 196, N^4-(Cyclopropylmethyl)-6-[3-methyl-3-(methylamino)azetidin-1-yl]pyrimidine-2,4-diamine] | 33.1 nM
36 | CN1C[C@@H]2C[C@H]1CN2c1cc(NCC(C)(C)C)nc(N)n1 [Example 191, N^4-(2,2-Dimethylpropyl)-6-[(1S,4S)-5-methyl-2,5-diazabicyclo[2.2.1]hept-2-yl]pyrimidine-2,4-diamine] | 28.2 nM
37 | CNCC1CN(c2cc(NCC(C)(C)C)nc(N)n2)C1 [Example 209, N^4-(2,2-Dimethylpropyl)-6-{3-[(methylamino)methyl]azetidin-1-yl}pyrimidine-2,4-diamine] | 46.4 nM
38 | CC(C)(C)CCNc1cc(N2CC(N3CCCC3)C2)ncn1 [Example 244, N-(3,3-Dimethylbutyl)-6-(3-pyrrolidin-1-ylazetidin-1-yl)pyrimidin-4-amine] | 297 nM
39 | CN[C@@H]1CCN(c2cc(NC(C)(C)C)nc(N)n2)C1 [Example 148, N^4-(tert-Butyl)-6-[(3R)-3-(methylamino)pyrrolidin-1-yl]pyrimidine-2,4-diamine] | 4.89 nM
40 | CN1CCN(c2cc(NCCC(C)(C)C)nc(N)n2)CC1 [Example 102, N^4-(3,3-Dimethylbutyl)-6-(4-methylpiperazin-1-yl)pyrimidine-2,4-diamine] | 57.3 nM
41 | CCNc1cc(N2CC(NC)C2)nc(N)n1 [Example 70, N^4-Ethyl-6-[3-(methylamino)azetidin-1-yl]pyrimidine-2,4-diamine] | 3.79 nM

same assay, conditions: top dose 6.3 μM

Row | Structure (SMILES) | Method 1, activity at top dose (6.3 μM)
42 | CN[C@@H]1CCN(c2ncnc(NCC3CC3)c2C)C1 [Example 291, N-(Cyclopropylmethyl)-5-methyl-6-[(3R)-3-(methylamino)pyrrolidin-1-yl]pyrimidin-4-amine] | No activity at top

same assay, conditions: top dose 10 μM

Row | Structure (SMILES) | Method 1, activity at top dose (10 μM)
43 | CNC1CN(c2cc(NCc3cc(F)cc(F)c3)nc(N)n2)C1 [Example 316, N^4-(3,5-Difluorobenzyl)-6-[3-(methylamino)azetidin-1-yl]pyrimidine-2,4-diamine] | No activity at top
44 | C[C@@H]1CN(c2cc(NCC3CC3)nc(N)n2)CCN1 [Example 310, N^4-(Cyclopropylmethyl)-6-[(3R)-3-methylpiperazin-1-yl]pyrim idine-2,4-diamine] | No activity at top
45 | CNC1(C)CN(c2cc(NCCC(C)(C)C)nc(N)n2)C1 [Example 298, N^4-(3,3-Dimethylbutyl)-6-[3-methyl-3-(methylamino)azetidin-1-yl]pyrimidine-2,4-diamine] | No activity at top
